Data: patent US5128448A, “CCK analogs with appetite regulating activity” (Hoffman-La Roche Inc., priority 1990, dated 1992)
Non-standard residues stand in square brackets, D forms with d. Residues, ends and D or L forms follow the SMILES beside them. sY = N[C@@H](Cc1ccc(OS(=O)(=O)O)cc1)C(=O)O; 2Nal = N[C@@H](Cc1ccc2ccccc2c1)C(=O)O; Cha = N[C@@H](CC1CCCCC1)C(=O)O

Biological target: Human neutral metalloendopeptidase (Homo sapiens, UniProt P08473)
Experiment: Degradation by human neutral metalloendopeptidase (HPLC)
Assay type: in vitro ADME
Details: for % Degradation by Heights: 37° C., tris-HCl pH 7.6; for No. of Peaks: HPLC
Experimental: Human neutral metalloendopeptidase (0.01 mg) and 5 nmol of peptide were incubated in […] tris-HCl buffer (pH 7.6) and at 37° C. for varying periods of time. The degradation of the peptide was monitored by analytical HPLC on a 5 micron Adsorbosphere-ODS column with 0-50% CH3 CN gradient in 0.1N potassium phosphate buffer, pH 3.0, with UV detection at 210 nm. Rates are based on presumed production of Asp-Tyr(SO3 H)-Met-Gly for CCK-8 and Ac-Tyr(SO3 H)-Met-Gly for the compound of example 73.

Chain of Human neutral metalloendopeptidase (P08473 whole entry): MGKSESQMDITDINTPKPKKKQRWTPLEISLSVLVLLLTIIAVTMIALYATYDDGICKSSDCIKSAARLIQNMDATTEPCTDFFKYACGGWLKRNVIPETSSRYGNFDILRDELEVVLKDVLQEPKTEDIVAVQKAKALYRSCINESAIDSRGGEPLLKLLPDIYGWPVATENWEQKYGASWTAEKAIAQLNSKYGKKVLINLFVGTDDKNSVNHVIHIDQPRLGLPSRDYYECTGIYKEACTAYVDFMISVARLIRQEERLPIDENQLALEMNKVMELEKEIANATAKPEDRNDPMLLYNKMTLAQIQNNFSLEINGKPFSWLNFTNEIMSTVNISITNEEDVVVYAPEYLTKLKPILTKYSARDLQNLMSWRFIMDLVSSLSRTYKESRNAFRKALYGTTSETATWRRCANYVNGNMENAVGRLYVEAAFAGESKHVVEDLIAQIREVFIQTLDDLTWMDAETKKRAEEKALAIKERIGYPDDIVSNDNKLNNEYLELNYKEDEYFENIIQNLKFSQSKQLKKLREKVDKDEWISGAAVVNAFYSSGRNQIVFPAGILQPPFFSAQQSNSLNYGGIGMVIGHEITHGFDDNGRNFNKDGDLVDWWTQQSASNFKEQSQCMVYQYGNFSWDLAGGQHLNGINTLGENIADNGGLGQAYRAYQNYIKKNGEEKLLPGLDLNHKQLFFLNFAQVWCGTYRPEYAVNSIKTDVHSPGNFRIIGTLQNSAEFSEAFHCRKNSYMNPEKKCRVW

% Degradation by Heights (time of incubation 120 min)	% Degradation by Heights (time of incubation 240 min)	No. of Peaks (time of incubation 240 min, one peak detected and one peak that coeluted with substrate)	Compound	% Degradation by Heights (time of incubation 0 min)	% Degradation by Heights (time of incubation 15 min)	% Degradation by Heights (time of incubation 30 min)	% Degradation by Heights (time of incubation 60 min)	No. of Peaks (time of incubation 60 min)
–	–	–	CSCC[C@H](NC(=O)[C@H](Cc1ccc(OS(=O)(=O)O)cc1)NC(=O)[C@@H](N)CC(=O)O)C(=O)NCC(=O)N[C@@H](Cc1c[nH]c2ccccc12)C(=O)N[C@@H](CCSC)C(=O)N[C@@H](CC(=O)O)C(=O)N[C@@H](Cc1ccccc1)C(N)=O [CCK-8, Asp^26 -Tyr-(SO3 H)^27 -Met^28 -Gly^29 -Trp^30 -Met^31 -Asp^32 -Phe^33 -NH2]	0%	6.2%	33.2%	69.7%	4
27.0%	56.4%	2	CSCC[C@H](NC(=O)[C@H](Cc1ccc(OS(=O)(=O)O)cc1)NC(C)=O)C(=O)NCC(=O)N[C@@H](Cc1ccc2ccccc2c1)C(=O)N[C@@H](CCSC)C(=O)N[C@@H](CC(=O)O)C(=O)N[C@@H](CC1CCCCC1)C(N)=O [Example 73, Ac-Tyr(SO3 H)-Met-Gly-(2)Nal-Met-Asp-Cyclohexylalanine-NH2] (Ac-[sY]MG[2Nal]MD[Cha]-NH2)	0%	–	–	10.0%	–
